Reference: article PMC6470589, “Contribution of Molecular Structure to Self-Assembling and Biological Properties of Bifunctional Lipid-Like 4-(N-Alkylpyridinium)-1,4-Dihydropyridines” (Pharmaceutics, 2019)

Columns and labels:
[1] = system: NIH 3T3 (Mouse Swiss Albino embryo fibroblast) cells; assay: Basal cytotoxicity test (neutral red uptake) with estimation of LD50 from IC50; format: cell-based; settings: category by estimated LD50 (mg/kg)
Description: The neutral red uptake (NRU) assay was performed according to the standard protocol of Stokes modified by NICEATM-ECVAM validation study. The NRU cytotoxicity assay procedure was based on the ability of viable cells to incorporate and bind neutral red, which is a supravital dye.
NIH 3T3 (Mouse Swiss Albino embryo fibroblast) cells (9000 cells/well) were placed into 96-well plates for 24 h in DMEM medium containing 5% fetal bovine serum (FBS). Then, they were exposed to the test compound over a range of seven concentrations (1000 μg/mL, 316 μg/mL, 100 μg/mL, 31 μg/mL, 10 μg/mL, 3.0 μg/mL, and 1.0 μg/mL) for 24 h. Untreated cells were used as a control. After 24 h, the medium was removed from all plates. Then, 250 μL of neutral red (NR) solution was added (0.05 mg/mL NR in DMEM 24 h pre-incubated at 37 °C and then filtered before use through a 0.22-µm syringe filter). Plates were incubated for 3 h, and then, cells were washed three times with phosphate buffered saline (PBS). The dye within viable cells was released by extraction with a mixture of acetic acid, ethanol, and water (1:50:49). The absorbance of neutral red was measured using a spectrophotometer multiplate reader Infinite M1000 (Tecan Austria GmbH, Salzburg, Austria) at 540 nm. The optical density (OD) was calculated using the formula: OD (treated cells) × 100/OD (control cells). The IC50 values were calculated using the program Graph Pad Prism® 3.0.
Data from the in vitro tests were used for estimating the starting dose for acute oral systemic toxicity tests in rodent. The in vivo starting dose is an estimated LD50 value that is calculated by inserting the in vitro IC50 value into a regression formula: log LD50 (mM/kg) = 0.439 log IC50 (mM) + 0.621 [29]. The value is recalculated to mg/kg, and compounds are evaluated in accordance with four toxicity categories: category 1: LD50 ≤ 5 mg/kg (highly toxic); category 2: 5 < LD50 ≤ 50 mg/kg (moderately toxic); category 3: 50 < LD50 ≤ 300 mg/kg (slightly toxic); category 4: 300 < LD50 ≤ 2000 mg/kg (practically non-toxic). Using an alternative in vitro method enables comparing the possible toxicity of new compounds and selecting compounds for further study, which will vastly reduce the number of animal experiments.

[2] = system: DPPC (1,2-dipalmitoyl-sn-glycero-3-phosphocholine) vesicles with DPH probe; assay: Phospholipid binding assay (quenching of DPH fluorescence); settings: DPPC 2 × 10^−5 M, DPH 5 × 10^−6 M, 1,4-DHP 5 × 10^−5 M
Description: Binding studies of the 4-(N-alkylpyridinium)-1,4-DHP derivatives 1–11 with phospholipid were carried out in Tris-buffered saline (TBS) buffer (10 mM of Tris, 150 mM of NaCl, pH 7.4) by a fluorescence probe technique using a modified protocol described by Ma et al.. Briefly, 1,2-dipalmitoyl-sn-glycero-3-phosphocholine (DPPC) vesicles dispersed in TBS buffer were prepared by sonication of the lipid solution using a probe sonifier for 30 min. The concentration of DPPC stock solution was 6 × 10^−5 M; the concentration of the stock solutions of the 4-(N-alkylpyridinium)-1,4-DHP derivatives were 1.5 × 10^−4 M.
To characterise the hydrophobic interaction between the 1,4-DHP and phospholipids, 1,6-diphenyl-1,3,5-hexatriene (DPH) was used as a fluorescence probe. […]
Mixtures containing 40 µL of DPPC stock solution (6 × 10^−5 M) and 40 µL of DPH diluted stock solution (15 × 10^−6 M) were incubated at 50 °C for 0.5 h in the dark; then, an aliquot of 4-(N-alkylpyridinium)-1,4-DHP derivatives was added with the following incubation at 50 °C for 0.5 h in the dark, after which samples were cooled to room temperature and the fluorescence intensity was measured by a Tecan multiplate reader Infinite1000 (Tecan Austria GmbH, Salzburg, Austria). […]

[3] = system: transgenic Alzheimer's disease female mice; set-up: method as in PMID 27345857; settings: cited from earlier work

CCCCCCCCCCCC[n+]1cccc(C2C(C(=O)OCC)=C(C)NC(C)=C2C(=O)OCC)c1 [Compound 3]
Toxicity category from estimated LD50 [1]: non-toxic
Quenching of the fluorescence of the DPH-DPPC system [2]: lowest relative fluorescence intensity
Memory-improving anxiolytic effects [3]: memory-improving anxiolytic effects
